Source: ChEMBL document CHEMBL1135085, “Potent P1' biphenylmethyl substituted aggrecanase inhibitors” (Bioorg Med Chem Lett, 2002)

Experiments:
[1] = Inhibitory activity against aggrecanase was determined
Interstitial collagenase = target: T1, Interstitial collagenase (Homo sapiens, UniProt P03956); assay: Binding affinity for interstitial collagenase (MMP-1)
T1 sequence (P03956 whole entry): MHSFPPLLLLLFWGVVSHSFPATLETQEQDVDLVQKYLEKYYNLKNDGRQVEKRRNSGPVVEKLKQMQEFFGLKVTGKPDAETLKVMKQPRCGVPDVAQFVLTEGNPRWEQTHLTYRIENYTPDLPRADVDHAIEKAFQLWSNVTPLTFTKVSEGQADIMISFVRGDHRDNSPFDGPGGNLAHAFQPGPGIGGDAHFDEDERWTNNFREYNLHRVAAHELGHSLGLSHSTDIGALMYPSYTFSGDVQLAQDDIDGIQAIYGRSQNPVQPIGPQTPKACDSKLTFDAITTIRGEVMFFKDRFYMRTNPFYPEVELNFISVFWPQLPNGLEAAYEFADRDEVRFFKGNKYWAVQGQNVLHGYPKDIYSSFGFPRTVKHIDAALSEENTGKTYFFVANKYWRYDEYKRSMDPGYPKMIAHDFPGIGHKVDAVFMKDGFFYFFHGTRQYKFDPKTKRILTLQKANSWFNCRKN

[2] = target: 72 kDa type IV collagenase (Homo sapiens, UniProt P08253); assay: Binding affinity for human gelatinase A (MMP-2)
[3] = target: Matrix metalloproteinase-9 (Homo sapiens, UniProt P14780); assay: Binding affinity for human gelatinase B (MMP-9)
Matrix metalloproteinase-9, sequence (P14780 whole entry): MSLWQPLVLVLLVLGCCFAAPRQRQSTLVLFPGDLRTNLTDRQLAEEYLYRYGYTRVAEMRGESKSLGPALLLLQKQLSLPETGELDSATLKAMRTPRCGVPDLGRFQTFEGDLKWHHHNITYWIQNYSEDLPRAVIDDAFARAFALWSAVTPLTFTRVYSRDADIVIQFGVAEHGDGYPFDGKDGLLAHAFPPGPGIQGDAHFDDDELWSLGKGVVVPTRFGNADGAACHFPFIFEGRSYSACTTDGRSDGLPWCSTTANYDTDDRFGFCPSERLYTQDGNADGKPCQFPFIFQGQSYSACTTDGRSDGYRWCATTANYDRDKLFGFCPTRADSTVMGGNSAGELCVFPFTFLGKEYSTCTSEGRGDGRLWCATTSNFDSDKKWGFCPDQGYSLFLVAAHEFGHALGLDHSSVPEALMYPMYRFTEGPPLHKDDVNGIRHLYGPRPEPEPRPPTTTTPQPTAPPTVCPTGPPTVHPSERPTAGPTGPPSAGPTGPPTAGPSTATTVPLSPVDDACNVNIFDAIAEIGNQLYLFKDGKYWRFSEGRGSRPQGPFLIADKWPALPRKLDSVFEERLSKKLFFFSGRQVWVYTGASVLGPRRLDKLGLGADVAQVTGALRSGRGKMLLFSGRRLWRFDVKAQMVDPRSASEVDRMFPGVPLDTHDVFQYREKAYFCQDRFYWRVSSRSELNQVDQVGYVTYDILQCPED

72 kDa type IV collagenase, sequence (P08253 whole entry): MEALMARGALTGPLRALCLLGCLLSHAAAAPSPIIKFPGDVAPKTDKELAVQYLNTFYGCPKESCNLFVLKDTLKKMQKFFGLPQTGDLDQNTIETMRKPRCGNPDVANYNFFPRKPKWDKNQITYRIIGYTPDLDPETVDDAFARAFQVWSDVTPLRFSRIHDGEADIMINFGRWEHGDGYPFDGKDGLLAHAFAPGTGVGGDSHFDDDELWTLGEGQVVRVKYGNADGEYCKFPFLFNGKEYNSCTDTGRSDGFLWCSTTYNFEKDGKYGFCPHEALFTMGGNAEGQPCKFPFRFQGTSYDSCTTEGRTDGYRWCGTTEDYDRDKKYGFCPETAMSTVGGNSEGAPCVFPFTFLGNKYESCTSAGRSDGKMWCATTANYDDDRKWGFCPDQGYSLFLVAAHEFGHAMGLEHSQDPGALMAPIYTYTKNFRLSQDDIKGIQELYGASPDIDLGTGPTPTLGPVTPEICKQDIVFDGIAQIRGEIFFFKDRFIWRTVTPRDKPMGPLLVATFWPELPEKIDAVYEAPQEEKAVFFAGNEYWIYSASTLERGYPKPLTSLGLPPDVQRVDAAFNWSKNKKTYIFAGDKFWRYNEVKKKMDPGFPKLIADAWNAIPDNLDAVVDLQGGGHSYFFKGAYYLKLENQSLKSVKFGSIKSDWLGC

SMILES	IC50 [1] [nM]	Ki (Interstitial collagenase) [nM]	Ki [2] [nM]	Ki [3] [nM]
Cc1ccccc1-c1ccc(C[C@H](CC(=O)NO)C(=O)N[C@H]2c3ccccc3C[C@H]2O)cc1	11.6	4110	< 2.8	4.2
O=C(C[C@@H](Cc1ccc(-c2ccccc2CO)cc1)C(=O)N[C@H]1c2ccccc2C[C@H]1O)NO	144	> 5000	500	> 2000
CC(C)c1cccc(-c2ccc(C[C@H](CC(=O)NO)C(=O)N[C@H]3c4ccccc4C[C@H]3O)cc2)c1	216	–	–	–
O=C(C[C@@H](Cc1ccc(-c2ccccc2-c2nn[nH]n2)cc1)C(=O)N[C@H]1c2ccccc2C[C@H]1O)NO	239	> 5000	1130	277
O=C(C[C@@H](Cc1ccc(-c2ccccc2Cl)cc1)C(=O)N[C@H]1c2ccccc2C[C@H]1O)NO	32	> 5000	27	150
O=C(C[C@@H](Cc1ccc(-c2ccc3c(c2)OCO3)cc1)C(=O)N[C@H]1c2ccccc2C[C@H]1O)NO	1.5	12800	43	309
Cc1cccc(-c2ccc(C[C@H](CC(=O)NO)C(=O)N[C@H]3c4ccccc4C[C@H]3O)cc2)c1	11.5	> 5000	39	1080
O=C(C[C@@H](Cc1ccc(-c2cccc([N+](=O)[O-])c2)cc1)C(=O)N[C@H]1c2ccccc2C[C@H]1O)NO	5.5	–	–	–
O=C(C[C@@H](Cc1ccc(-c2cccc(F)c2)cc1)C(=O)N[C@H]1c2ccccc2C[C@H]1O)NO	2	–	–	–
COc1cccc(-c2ccc(C[C@H](CC(=O)NO)C(=O)N[C@H]3c4ccccc4C[C@H]3O)cc2)c1	3.7	> 5000	< 2.8	2.8
CS(=O)(=O)Nc1cccc(-c2ccc(C[C@H](CC(=O)NO)C(=O)N[C@H]3c4ccccc4C[C@H]3O)cc2)c1	1.5	–	–	–
O=C(C[C@@H](Cc1ccc(-c2ccccc2)cc1)C(=O)N[C@H]1c2ccccc2C[C@H]1O)NO	9.8	> 5000	< 1	5.4
O=C(C[C@@H](Cc1cccc(O)c1)C(=O)N[C@H]1c2ccccc2C[C@H]1O)NO	64	–	–	–
COc1ccccc1-c1ccc(C[C@H](CC(=O)NO)C(=O)N[C@H]2c3ccccc3C[C@H]2O)cc1	3.4	–	–	–
